Reference: ChEMBL document CHEMBL5291721, “A preclinical secondary pharmacology resource illuminates target-adverse drug reaction associations of marketed drugs” (Nat Commun, 2023)

Assays:
[1] = target: Beta-2 adrenergic receptor (Homo sapiens, UniProt P07550)
[2] = target: Neuronal acetylcholine receptor subunit alpha-4 (Homo sapiens, UniProt P43681)
[3] = target: Vasopressin V2 receptor (Homo sapiens, UniProt P30518)
[4] = target: T1, B2 bradykinin receptor (Homo sapiens, UniProt P30411)
T1 sequence (P30411 whole entry): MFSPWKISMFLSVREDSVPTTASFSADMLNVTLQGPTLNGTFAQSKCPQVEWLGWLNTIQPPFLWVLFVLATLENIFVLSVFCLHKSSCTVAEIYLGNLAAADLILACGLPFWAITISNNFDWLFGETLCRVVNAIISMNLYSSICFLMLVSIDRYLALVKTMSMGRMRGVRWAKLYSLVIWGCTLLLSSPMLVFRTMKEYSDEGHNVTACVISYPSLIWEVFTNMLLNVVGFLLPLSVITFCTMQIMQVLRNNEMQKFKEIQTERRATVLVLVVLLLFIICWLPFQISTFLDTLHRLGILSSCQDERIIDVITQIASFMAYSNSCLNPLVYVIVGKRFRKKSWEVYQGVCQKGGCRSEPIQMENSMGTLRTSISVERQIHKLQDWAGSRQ

[5] = target: Muscarinic acetylcholine receptor M3 (Homo sapiens, UniProt P20309)
Chain of Muscarinic acetylcholine receptor M3 (P20309 whole entry): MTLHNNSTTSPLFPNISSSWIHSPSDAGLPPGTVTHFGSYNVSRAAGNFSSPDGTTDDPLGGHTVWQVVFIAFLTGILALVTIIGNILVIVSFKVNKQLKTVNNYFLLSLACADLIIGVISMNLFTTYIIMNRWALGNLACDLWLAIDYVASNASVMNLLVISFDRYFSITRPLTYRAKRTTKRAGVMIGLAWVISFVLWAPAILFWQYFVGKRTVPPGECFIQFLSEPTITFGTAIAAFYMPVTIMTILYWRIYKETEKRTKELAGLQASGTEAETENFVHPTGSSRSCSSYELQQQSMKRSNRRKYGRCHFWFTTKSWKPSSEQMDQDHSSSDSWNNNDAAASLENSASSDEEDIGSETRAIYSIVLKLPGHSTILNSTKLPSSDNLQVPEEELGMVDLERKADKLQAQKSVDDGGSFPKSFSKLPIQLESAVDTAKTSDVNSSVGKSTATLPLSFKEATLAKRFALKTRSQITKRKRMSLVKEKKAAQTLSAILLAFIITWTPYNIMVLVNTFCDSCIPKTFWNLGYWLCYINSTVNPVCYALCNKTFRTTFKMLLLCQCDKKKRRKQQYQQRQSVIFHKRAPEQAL

[6] = target: Histamine H2 receptor (Homo sapiens, UniProt P25021); type: functional, cell-based
Chain of Histamine H2 receptor (P25021 whole entry): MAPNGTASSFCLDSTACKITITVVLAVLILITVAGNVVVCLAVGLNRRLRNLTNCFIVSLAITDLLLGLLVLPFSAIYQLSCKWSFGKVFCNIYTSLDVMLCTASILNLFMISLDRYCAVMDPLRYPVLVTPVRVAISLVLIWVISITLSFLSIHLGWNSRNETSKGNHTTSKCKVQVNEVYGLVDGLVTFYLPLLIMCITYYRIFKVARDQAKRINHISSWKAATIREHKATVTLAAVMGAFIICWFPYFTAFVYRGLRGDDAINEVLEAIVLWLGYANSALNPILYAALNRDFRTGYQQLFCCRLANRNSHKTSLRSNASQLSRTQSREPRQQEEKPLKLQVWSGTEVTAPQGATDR

[7] = target: Sodium-dependent dopamine transporter (Homo sapiens, UniProt Q01959)
Chain of Sodium-dependent dopamine transporter (Q01959 whole entry): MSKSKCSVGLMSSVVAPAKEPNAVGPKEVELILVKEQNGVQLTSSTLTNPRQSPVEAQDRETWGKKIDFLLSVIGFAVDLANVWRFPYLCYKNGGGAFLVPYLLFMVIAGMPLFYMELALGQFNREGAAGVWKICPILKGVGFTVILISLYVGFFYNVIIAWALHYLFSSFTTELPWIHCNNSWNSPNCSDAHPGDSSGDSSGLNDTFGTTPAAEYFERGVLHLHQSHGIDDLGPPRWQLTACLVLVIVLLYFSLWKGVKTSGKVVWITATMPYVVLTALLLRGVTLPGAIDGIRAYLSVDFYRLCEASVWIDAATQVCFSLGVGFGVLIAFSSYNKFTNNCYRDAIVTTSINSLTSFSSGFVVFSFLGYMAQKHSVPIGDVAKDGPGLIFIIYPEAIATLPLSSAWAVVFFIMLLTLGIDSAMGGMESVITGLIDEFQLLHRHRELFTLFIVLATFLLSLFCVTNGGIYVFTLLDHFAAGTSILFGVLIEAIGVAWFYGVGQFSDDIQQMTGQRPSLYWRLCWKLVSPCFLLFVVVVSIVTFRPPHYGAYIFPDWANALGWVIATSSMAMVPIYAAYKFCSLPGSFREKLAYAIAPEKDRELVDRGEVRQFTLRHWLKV

[8] = target: T2, Endothelin-1 receptor (Homo sapiens, UniProt P25101)
T2 sequence (P25101 whole entry): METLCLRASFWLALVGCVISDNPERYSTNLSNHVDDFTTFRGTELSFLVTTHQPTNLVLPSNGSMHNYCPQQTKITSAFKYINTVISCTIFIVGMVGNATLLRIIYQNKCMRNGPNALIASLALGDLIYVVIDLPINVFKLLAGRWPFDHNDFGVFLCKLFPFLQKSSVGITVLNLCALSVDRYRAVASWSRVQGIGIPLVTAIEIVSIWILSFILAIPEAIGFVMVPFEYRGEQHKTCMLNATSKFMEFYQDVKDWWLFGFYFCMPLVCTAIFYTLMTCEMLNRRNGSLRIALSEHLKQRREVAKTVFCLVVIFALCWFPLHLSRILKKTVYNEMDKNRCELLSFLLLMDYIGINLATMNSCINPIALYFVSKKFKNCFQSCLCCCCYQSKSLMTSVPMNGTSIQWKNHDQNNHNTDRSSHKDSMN

[9] = target: T3, Alpha-2C adrenergic receptor (Homo sapiens, UniProt P18825); type: functional
T3 sequence (P18825 whole entry): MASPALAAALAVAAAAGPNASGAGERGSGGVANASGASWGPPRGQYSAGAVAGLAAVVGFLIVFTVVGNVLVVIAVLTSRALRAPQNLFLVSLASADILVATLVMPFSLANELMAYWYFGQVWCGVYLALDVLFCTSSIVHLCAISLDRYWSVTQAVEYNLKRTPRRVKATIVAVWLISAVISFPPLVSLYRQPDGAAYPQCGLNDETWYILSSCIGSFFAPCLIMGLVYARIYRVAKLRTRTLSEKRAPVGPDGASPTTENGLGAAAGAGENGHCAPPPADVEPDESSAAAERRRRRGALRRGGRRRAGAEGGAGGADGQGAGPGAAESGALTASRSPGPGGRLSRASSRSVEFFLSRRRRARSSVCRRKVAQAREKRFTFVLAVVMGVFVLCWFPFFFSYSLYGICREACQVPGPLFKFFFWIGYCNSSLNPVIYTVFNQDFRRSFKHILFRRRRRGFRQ

[10] = target: Motilin receptor (Homo sapiens, UniProt O43193)
Chain of Motilin receptor (O43193 whole entry): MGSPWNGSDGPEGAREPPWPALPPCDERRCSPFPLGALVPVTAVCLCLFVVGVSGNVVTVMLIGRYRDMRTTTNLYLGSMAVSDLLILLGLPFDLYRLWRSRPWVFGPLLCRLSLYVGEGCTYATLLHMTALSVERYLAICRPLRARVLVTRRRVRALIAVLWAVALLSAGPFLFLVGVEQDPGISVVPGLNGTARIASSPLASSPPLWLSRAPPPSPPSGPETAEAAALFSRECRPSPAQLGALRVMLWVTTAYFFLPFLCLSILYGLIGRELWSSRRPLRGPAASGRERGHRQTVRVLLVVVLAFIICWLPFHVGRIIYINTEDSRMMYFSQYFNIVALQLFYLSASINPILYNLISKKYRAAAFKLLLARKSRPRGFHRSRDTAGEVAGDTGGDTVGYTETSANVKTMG

[11] = target: D(3) dopamine receptor (Homo sapiens, UniProt P35462)
Chain of D(3) dopamine receptor (P35462 whole entry): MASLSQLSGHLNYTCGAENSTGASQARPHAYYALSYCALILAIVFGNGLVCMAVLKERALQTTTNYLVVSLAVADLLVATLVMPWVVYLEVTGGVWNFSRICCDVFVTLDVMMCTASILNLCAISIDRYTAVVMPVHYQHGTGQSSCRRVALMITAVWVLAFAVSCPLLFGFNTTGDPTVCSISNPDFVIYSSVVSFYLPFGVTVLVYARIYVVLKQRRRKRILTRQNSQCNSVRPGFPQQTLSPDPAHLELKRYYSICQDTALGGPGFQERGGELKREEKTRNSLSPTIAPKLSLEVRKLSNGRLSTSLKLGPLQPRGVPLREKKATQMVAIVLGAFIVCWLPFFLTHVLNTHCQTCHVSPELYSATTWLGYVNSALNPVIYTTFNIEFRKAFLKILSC

[12] = target: Mu-type opioid receptor (Homo sapiens, UniProt P35372); experiment: biochemical; type: functional
Chain of Mu-type opioid receptor (P35372 whole entry): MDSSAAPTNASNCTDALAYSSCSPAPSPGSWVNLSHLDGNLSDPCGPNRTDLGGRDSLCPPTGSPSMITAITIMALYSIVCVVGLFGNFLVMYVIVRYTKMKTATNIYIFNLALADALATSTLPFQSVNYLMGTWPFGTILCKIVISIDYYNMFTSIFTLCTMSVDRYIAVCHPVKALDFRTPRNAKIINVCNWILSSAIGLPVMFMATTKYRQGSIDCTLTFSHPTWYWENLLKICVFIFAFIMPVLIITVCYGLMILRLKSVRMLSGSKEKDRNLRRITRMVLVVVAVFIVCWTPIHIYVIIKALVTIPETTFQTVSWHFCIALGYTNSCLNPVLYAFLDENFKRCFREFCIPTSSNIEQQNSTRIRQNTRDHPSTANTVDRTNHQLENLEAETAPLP

[13] = target: T4, Cholecystokinin receptor type A (Homo sapiens, UniProt P32238)
T4 sequence (P32238 whole entry): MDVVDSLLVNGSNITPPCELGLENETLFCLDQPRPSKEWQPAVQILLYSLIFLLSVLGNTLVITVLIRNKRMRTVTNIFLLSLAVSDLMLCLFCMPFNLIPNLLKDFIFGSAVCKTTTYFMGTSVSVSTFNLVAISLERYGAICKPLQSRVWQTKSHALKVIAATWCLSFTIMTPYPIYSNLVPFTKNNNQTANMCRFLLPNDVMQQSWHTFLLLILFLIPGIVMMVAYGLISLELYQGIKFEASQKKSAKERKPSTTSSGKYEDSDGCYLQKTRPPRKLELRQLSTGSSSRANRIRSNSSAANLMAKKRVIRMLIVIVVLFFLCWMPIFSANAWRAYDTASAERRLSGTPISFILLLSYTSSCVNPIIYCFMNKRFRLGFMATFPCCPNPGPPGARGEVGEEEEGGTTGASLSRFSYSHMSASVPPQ

[14] = target: 5-hydroxytryptamine receptor 2A (Homo sapiens, UniProt P28223); type: functional, cell-based
Chain of 5-hydroxytryptamine receptor 2A (P28223 whole entry): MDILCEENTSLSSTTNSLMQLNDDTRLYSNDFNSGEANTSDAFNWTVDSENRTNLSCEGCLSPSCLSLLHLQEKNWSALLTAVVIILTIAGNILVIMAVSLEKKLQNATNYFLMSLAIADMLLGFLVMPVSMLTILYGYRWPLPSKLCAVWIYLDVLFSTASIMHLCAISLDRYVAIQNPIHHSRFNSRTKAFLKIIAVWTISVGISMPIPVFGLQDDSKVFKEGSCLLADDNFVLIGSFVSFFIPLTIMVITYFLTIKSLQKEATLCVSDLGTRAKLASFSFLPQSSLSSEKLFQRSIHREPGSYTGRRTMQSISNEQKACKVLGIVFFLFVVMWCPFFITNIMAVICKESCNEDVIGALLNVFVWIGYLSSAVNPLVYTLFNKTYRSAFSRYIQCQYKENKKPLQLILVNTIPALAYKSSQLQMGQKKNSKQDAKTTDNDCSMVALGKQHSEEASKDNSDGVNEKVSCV

[15] = target: T5, Muscarinic acetylcholine receptor M2 (Homo sapiens, UniProt P08172); type: functional, cell-based
T5 sequence (P08172 whole entry): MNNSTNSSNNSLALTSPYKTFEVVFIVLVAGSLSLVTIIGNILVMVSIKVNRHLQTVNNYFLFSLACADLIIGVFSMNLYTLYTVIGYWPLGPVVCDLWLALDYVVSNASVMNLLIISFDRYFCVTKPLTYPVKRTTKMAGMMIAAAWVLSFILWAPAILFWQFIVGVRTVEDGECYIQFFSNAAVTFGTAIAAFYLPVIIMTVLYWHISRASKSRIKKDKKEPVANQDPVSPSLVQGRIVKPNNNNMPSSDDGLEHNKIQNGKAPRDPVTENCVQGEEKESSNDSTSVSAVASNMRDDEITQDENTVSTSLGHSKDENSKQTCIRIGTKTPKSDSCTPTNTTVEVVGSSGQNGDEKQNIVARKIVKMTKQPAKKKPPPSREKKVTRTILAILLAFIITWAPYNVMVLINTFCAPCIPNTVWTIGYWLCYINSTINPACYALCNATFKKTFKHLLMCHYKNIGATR
Note: assay procedure not described here.

Chain of Neuronal acetylcholine receptor subunit alpha-4 (P43681 whole entry): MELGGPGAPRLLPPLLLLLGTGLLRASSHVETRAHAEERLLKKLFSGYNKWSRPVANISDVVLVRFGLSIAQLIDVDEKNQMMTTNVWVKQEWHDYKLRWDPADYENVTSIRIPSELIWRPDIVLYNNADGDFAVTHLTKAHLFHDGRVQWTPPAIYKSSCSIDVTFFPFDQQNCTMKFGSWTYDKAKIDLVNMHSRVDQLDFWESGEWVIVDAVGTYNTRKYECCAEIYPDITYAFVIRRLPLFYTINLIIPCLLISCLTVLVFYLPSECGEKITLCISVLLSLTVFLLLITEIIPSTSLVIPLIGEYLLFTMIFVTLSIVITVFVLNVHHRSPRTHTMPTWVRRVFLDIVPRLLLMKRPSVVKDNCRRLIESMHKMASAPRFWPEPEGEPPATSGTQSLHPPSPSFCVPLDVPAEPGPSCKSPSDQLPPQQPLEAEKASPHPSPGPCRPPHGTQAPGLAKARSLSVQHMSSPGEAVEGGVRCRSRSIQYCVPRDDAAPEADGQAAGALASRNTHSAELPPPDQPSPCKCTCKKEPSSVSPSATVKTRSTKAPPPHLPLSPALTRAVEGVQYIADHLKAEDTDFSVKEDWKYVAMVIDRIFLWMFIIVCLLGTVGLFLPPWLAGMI
Chain of Beta-2 adrenergic receptor (P07550 whole entry): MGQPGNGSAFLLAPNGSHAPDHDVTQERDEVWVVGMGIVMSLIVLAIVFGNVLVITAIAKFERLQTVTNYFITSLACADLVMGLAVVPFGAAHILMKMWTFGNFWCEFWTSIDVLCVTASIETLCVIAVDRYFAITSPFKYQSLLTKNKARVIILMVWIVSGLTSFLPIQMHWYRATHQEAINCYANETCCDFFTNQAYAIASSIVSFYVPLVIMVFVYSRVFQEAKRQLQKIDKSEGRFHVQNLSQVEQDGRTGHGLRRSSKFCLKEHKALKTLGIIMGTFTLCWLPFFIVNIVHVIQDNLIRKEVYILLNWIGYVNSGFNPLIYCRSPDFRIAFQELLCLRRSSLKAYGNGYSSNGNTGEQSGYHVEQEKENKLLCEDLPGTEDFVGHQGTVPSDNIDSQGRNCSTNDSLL
Chain of Vasopressin V2 receptor (P30518 whole entry): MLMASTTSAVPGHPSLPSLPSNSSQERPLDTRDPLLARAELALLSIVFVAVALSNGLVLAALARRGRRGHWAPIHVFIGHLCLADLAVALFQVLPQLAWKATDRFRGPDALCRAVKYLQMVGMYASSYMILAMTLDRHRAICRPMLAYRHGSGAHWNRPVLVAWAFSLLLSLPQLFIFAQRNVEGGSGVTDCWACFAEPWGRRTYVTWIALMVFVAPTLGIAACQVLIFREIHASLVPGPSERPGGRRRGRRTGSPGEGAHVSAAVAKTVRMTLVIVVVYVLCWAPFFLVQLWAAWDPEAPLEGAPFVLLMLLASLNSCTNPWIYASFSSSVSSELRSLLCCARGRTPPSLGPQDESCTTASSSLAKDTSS

SMILES | AC50 [1] [µM] | AC50 [2] [µM] | AC50 [3] [µM] | AC50 [4] [µM] | AC50 [5] [µM] | AC50 [6] [µM] | AC50 [7] [µM] | AC50 [8] [µM] | AC50 [9] [µM] | AC50 [10] [µM] | AC50 [11] [µM] | AC50 [12] [µM] | AC50 [13] [µM] | AC50 [14] [µM] | AC50 [15] [µM]
CC(C)(C)C(=O)Oc1ccc(S(=O)(=O)Nc2ccccc2C(=O)NCC(=O)O)cc1 | > 30 | > 30 | > 30 | > 30 | > 30 | > 30 | > 30 | > 30 | > 30 | > 30 | > 30 | > 30 | > 30 | > 30 | > 30
COc1ccccc1N1CCN(CCCNc2cc(=O)n(C)c(=O)n2C)CC1 | 0.8 | > 30 | > 30 | > 30 | > 30 | > 30 | > 30 | > 30 | – | > 30 | 1.4 | > 30 | > 30 | > 30 | > 30
CCC(C(=O)O)c1ccc(N2Cc3ccccc3C2=O)cc1 (stereo not drawn) [INDOBUFEN] | > 30 | > 30 | > 30 | > 30 | > 30 | > 30 | > 30 | > 30 | > 30 | > 30 | > 30 | > 30 | > 30 | > 30 | > 30
CCCCCCOc1ccccc1C(N)=O [EXALAMIDE] | > 30 | > 30 | > 30 | > 30 | > 30 | > 30 | 14 | > 30 | > 30 | > 30 | > 30 | > 30 | > 30 | > 30 | –
CC(C)C(=O)c1c(C(C)C)nn2ccccc12 [IBUDILAST] | > 30 | > 30 | > 30 | > 30 | > 30 | > 30 | > 30 | > 30 | > 30 | > 30 | > 30 | > 30 | > 30 | > 30 | > 30
Cc1ccc(-n2nccn2)c(C(=O)N2CCN(c3nc4cc(Cl)ccc4o3)CC[C@H]2C)c1 [SUVOREXANT] | > 30 | > 30 | > 30 | > 30 | > 30 | > 30 | > 10 | > 30 | > 30 | > 30 | > 30 | > 30 | > 30 | > 30 | > 30
